Data reported in paper PMC4810081, “Venetoclax (ABT-199) Might Act as a Perpetrator in Pharmacokinetic Drug–Drug Interactions” (Pharmaceutics, 2016).

Legend:
CYP3A4 = assay: Induction assay, CYP3A4 mRNA by real-time RT-PCR in LS180 cells; format: in vitro ADME, human; conditions: four days, 0.01–10 µM
Procedure: (§1) LS180 cells. The human colon adenocarcinoma cell line LS180 (available at ATCC, Manassas, VA, USA) is one of the standard models for investigating pregnane X receptor (PXR) and aryl hydrocarbon receptor (AhR) mediated induction and was thus used for induction experiments. Cells were cultured under standard cell culture conditions with DMEM supplemented with 10% FCS, 2 mM of glutamine, 100 U/mL of penicillin, 100 µg/mL of streptomycin sulfate, and 0.1 mM of nonessential amino acids.
(§2) For the induction experiments, LS180 cells were seeded in 75 cm^2 culturing flasks and incubated for three days. […]
(§3) RNA was isolated using the GenElute™ Mammalian Total RNA Miniprep Kit, and cDNA was synthesized with the RevertAid™ H Minus First Strand cDNA Synthesis Kit according to the manufacturer's instructions. mRNA expression was quantified by real-time RT-PCR with the LightCycler® 480 (Roche Applied Science, Mannheim, Germany) as described previously. […] Data were evaluated via calibrator-normalized relative quantification with efficiency correction using the LightCycler® 480 software version 1.5 (Roche Applied Science, Mannheim, Germany). […] The following target genes were quantified: CYP1A1, CYP1A2, CYP3A4, ABCB1, ABCC2, ABCG2, SLCO1B1 (coding for OATP1B1), UDP-glucuronosyltransferase 1A3 (UGT1A3), and UGT1A9.

Bcl-xL = test system: Bcl-xL; design: method as in PMID 26639348, PMID 23291630; conditions: cited from earlier work
CYP2C19 = target: T1, CYP2C19 (Homo sapiens, UniProt P33261); assay: CYP2C19 inhibition, CYP2C19/CEC High Throughput Inhibitor Screening Kit; format: in vitro ADME; conditions: recombinant CYP, fluorogenic substrate
T1 construct: purchased Becton Dickinson Biosciences (Heidelberg, Germany)
Procedure: Inhibition studies for CYP2B6, CYP2D6, CYP2C19 and CYP3A4 were performed with the CYP2B6/EFC, CYP2D6/AMMC, the CYP2C19/CEC, and the CYP3A4/BFC High Throughput Inhibitor Screening Kit according to the manufacturer’s instructions. The kits contain the respective recombinant CYP and fluorogenic substrates, which are blocked dyes emitting a fluorescence signal when cleaved by the enzyme. For testing CYP1A2 inhibition, the P450-Glo CYP1A2 Screening System was used according to the manufacturer’s instructions. The kit contains the luminogenic CYP1A2 substrate luciferin-ME, which is converted by CYP1A2 into luciferin-generating light when incubated with the luciferin detection reagent of the kit. Eight concentrations of venetoclax in duplicates (0.009–20 µM) were tested in the fluorescence assays, and eight concentrations in triplicate (0.05–100 µM) were tested for the luminogenic assay. Each experiment was conducted in triplicate.

[1] = design: method as in PMID 26639348, PMID 22184378, PMID 27520294; conditions: cited from earlier work
P-gp = P-gp inhibition, calcein assay in P388/dx cells; format: in vitro ADME; conditions: mouse, P388/dx cells over-expressing murine mdr1a/b, probe calcein
Procedure: P388 and P388/dx cells. For testing P-gp inhibition, the murine monocytic leukemia cell line P388/dx over-expressing murine mdr1a/b and the corresponding parental cell line P388 were used. Both cell lines were kindly provided by D. Ballinari (Pharmacia & Upjohn, Milano, Italy). The cells were cultured under standard cell culture conditions with an RPMI 1640 medium supplemented with 10% FCS, 2 mM of glutamine, […] of β-mercaptoethanol, 100 U/mL of penicillin, and 100 µg/mL of streptomycin sulfate. For maintaining P-gp expression, the culture medium for P388/dx was supplemented with 0.43 µM of doxorubicin. One day before the assay, both cell lines were fed with a doxorubicin-free culture medium.
P-gp inhibition was assessed with the calcein assay in P388/dx cells as described previously. Inhibition of P-gp increases intracellular calcein fluorescence in these cells. Each venetoclax concentration (0.005–50 µM) was tested in octuplet, and the experiment was performed in quadruplicate.

CYP1A2 [2] = assay: Western blot of CYP1A2 protein expression in LS180 cells; format: in vitro ADME, human; conditions: four days
Procedure: For the induction experiments, LS180 cells were seeded in 75 cm^2 culturing flasks and incubated for three days. Cells were then treated with a culture medium containing venetoclax (0.01–10 µM) in quintuplicate for four consecutive days. Rifampicin (20 µM) served as a positive control for PXR-driven genes and culture medium as a negative control. All incubation solutions were adjusted to 0.02% DMSO. After harvesting, cells were split for RNA and protein extraction.
To exemplarily verify the effects of venetoclax on mRNA expression, protein expressions of P-gp and CYP1A2 were analyzed in triplicate by SDS polyacrylamide gel electrophoresis (SDS-PAGE) and Western blotting. In brief, cell lysates containing 20 µg protein were mixed with 5× sample buffer (containing Tris–HCl, SDS, DTT, bromophenol blue, and glycerol) and subjected to 10% SDS-PAGE. Afterwards, proteins were electrotransferred to nitrocellulose nitrate membranes. Blots were blocked by incubation for 20–40 min with 5% Slim-Fast® (w/v) in phosphate-buffered saline containing 0.1% Tween®20. […] Bands were visualized by enhanced chemiluminescence using the SuperSignal®West Pico Chemiluminescent Substrate Kit and recorded by FluorChem Q SA AlphaView Version 3.2.2, Cell Biosciences (Santa Clara, CA, USA).

CYP1A2 [3] = assay: Induction assay, CYP1A2 mRNA by real-time RT-PCR in LS180 cells; format: in vitro ADME, human; conditions: four days, 10 µM
Procedure: as §1, §2, §3

T1 sequence (P33261 whole entry): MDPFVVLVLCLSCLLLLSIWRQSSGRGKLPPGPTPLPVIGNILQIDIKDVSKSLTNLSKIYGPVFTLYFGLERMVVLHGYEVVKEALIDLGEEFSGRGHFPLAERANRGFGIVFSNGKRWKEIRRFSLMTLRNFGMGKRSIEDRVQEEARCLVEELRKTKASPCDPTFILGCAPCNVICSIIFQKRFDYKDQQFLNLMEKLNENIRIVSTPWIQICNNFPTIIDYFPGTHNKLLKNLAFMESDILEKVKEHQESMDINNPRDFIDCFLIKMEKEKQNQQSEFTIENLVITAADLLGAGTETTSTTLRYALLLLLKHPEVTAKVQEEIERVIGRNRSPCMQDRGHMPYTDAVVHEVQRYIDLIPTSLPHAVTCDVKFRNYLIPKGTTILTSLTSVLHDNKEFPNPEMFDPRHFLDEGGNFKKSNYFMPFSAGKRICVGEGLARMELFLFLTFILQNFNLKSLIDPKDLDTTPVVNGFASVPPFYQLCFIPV

For CC1(C)CCC(CN2CCN(c3ccc(C(=O)NS(=O)(=O)c4ccc(NCC5CCOCC5)c([N+](=O)[O-])c4)c(Oc4cnc5[nH]ccc5c4)c3)CC2)=C(c2ccc(Cl)cc2)C1 [Venetoclax], the “mRNA expression of CYP3A4” value (CYP3A4) is given as “unchanged”, the Bcl-xL inhibition (Bcl-xL) is given as “does not inhibit” and the IC50 (CYP2C19) is given as 14.2 ± 1 µM. The Therapeutic plasma concentrations [1] was “about 5 µM”, the IC50 (P-gp) was 30 ± 3.7 µM and the CYP1A2 protein expression (CYP1A2 [2]) was “induction”. The “mRNA expression of CYP1A2” value (CYP1A2 [3]) was “induced”.
